Results from US20130324412A1, “N-ALKOXYAMIDES OF 6-(SUBSTITUTED PHENYL)-4-AMINOPICOLINATES AND 2-(SUBSTITUTED PHENYL)-6-AMINO-4-PYRIMIDINECARBOXYLATES AND THEIR USE AS SELECTIVE HERBICIDES FOR CROPS” (DOW AGROSCIENCES LLC, priority 2009, published 2013).

How the values were obtained:
Assay type in all cases: in vivo
[1] = system: wild buckwheat (Polygonum convululus); assay: General postemergence herbicidal activity, wild buckwheat; settings: post-emergence, 336 h, 70 g ai/ha, postemergence, after 14 d, 0 = no injury, 100 = complete kill, read-out: POLCO % Visual Injury
Summary of the method: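 Greenhouse plants at first to second true leaf stage sprayed overhead at 187 L/ha in acetone/DMSO with crop oil concentrate and surfactant, at a high rate plus ½× to 1/16× serial dilutions. Injury rated visually after 14 d against solvent-blank controls, 0 (none) to 100% (complete kill).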

[2] = system: lambsquarters (Chenopodium album); assay: Postemergence herbicidal activity in corn, lambsquarters; settings: corn test, visual rating after 21 d, probit analysis, dose to kill or control 80 percent
Experimental: (§1) Seeds of corn and the desired weed species were planted in Sun Gro MetroMix 360 planting mixture, which typically has a pH of 6.0 to 6.8 and an organic matter content of about 30 percent, in plastic pots with a surface area of 95 cm^2. When required to ensure good germination and healthy plants, a fungicide treatment and/or other chemical or physical treatment was applied. The plants were grown for 7-21 d in a greenhouse with an approximate 15-h photoperiod which was maintained at about 23-29° C. during the day and 22-28° C. during the night. Nutrients and water were added on a regular basis and supplemental lighting was provided with overhead metal halide 1000-Watt lamps as necessary. The corn plants were utilized for testing when they reached the second true leaf stage. The weed species were utilized at the first or second true leaf stage.
(§2) A weighed amount, determined by the highest rate to be tested, of each test compound was dissolved in 4 mL of a 97:3 v/v mixture of acetone and DMSO to obtain concentrated stock solutions. […] The concentrated stock solutions obtained were diluted with 20 mL of an aqueous mixture containing acetone, water, isopropyl alcohol, DMSO, Atplus 411F crop oil concentrate, and Triton X-155 surfactant in a 48.5:39:10:1.5:1.0:0.02 v/v ratio to obtain spray solutions containing the highest application rates. […]
(§3) The treated plants and control plants were placed in a greenhouse as described above and watered by sub-irrigation to prevent wash-off of the test compounds. After 21 d, the condition of the test plants as compared with that of the untreated plants was determined visually and scored on a scale of 0 to 100 percent where 0 corresponds to no injury and 100 corresponds to complete kill. […]

[3] = system: pigweed, redroot (Amaranthus retroflexus); assay: Postemergence herbicidal activity in corn, redroot pigweed; settings: corn test, visual rating after 21 d, probit analysis, dose to kill or control 80 percent
Experimental: as §1, §2, §3

Structure (SMILES)	pest or weed control at 70 g/ha [1] [%]	CHEAL GR80 [2] [g ai/ha]	AMARE GR80 [3] [g ai/ha]
COc1c(Cl)ccc(-c2cc(N)c(Cl)c(C(=O)NOCC(C)C)n2)c1F [Compound 1, 4-amino-3-chloro-6-(4-chloro-2-fluoro-3-methoxyphenyl)-N-(2-methylpropoxy)picolinamide]	100	<4	14
CONC(=O)c1nc(-c2ccc(Cl)c(OC)c2F)cc(N)c1Cl [Compound 2, 4-Amino-3-chloro-6-(4-chloro-2-fluoro-3-methoxyphenyl)-N-methoxypicolinamide]	100	<4	<4
